Measured values published in PubChem BioAssay (NCI).
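Following 48 hours of exposure in 96-well plates, responses at five concentrations were used to interpolate endpoints linearly. TGI denotes the concentration required for complete inhibition of growth.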

Experiments:
Assay in all cases: NCI-60 cell line screen, 48 h
786-0 renal = tested on: 786-0 renal
A498 renal = tested on: A498 renal
A549 NSCLC = tested on: A549 NSCLC
ACHN renal = tested on: ACHN renal
CCRF-CEM leukemia = tested on: CCRF-CEM leukemia
COLO 205 colon = tested on: COLO 205 colon
DLD-1 colon = tested on: DLD-1 colon
DMS 114 small cell lung = tested on: DMS 114 small cell lung
DMS 273 small cell lung = tested on: DMS 273 small cell lung
EKVX NSCLC = tested on: EKVX NSCLC
HCC-2998 colon = tested on: HCC-2998 colon
HCT-116 colon = tested on: HCT-116 colon
HCT-15 colon = tested on: HCT-15 colon
HL-60(TB) leukemia = tested on: HL-60(TB) leukemia
HOP-18 NSCLC = tested on: HOP-18 NSCLC
HOP-62 NSCLC = tested on: HOP-62 NSCLC
HOP-92 NSCLC = tested on: HOP-92 NSCLC
HT29 colon = tested on: HT29 colon
IGROV1 ovarian = tested on: IGROV1 ovarian
K-562 leukemia = tested on: K-562 leukemia
KM12 colon = tested on: KM12 colon
KM20L2 colon = tested on: KM20L2 colon
LOX IMVI melanoma = tested on: LOX IMVI melanoma
LXFL 529 NSCLC = tested on: LXFL 529 NSCLC
M14 melanoma = tested on: M14 melanoma
MALME-3M melanoma = tested on: MALME-3M melanoma
MOLT-4 leukemia = tested on: MOLT-4 leukemia
NCI-H226 lung = tested on: NCI-H226 lung
NCI-H23 lung = tested on: NCI-H23 lung
NCI-H460 lung = tested on: NCI-H460 lung
NCI-H522 lung = tested on: NCI-H522 lung
OVCAR-3 ovarian = tested on: OVCAR-3 ovarian
OVCAR-4 ovarian = tested on: OVCAR-4 ovarian
OVCAR-5 ovarian = tested on: OVCAR-5 ovarian
OVCAR-8 ovarian = tested on: OVCAR-8 ovarian
RPMI-8226 leukemia = tested on: RPMI-8226 leukemia
RXF 393 renal = tested on: RXF 393 renal
SF-268 CNS = tested on: SF-268 CNS
SF-295 CNS = tested on: SF-295 CNS
SF-539 CNS = tested on: SF-539 CNS
SK-MEL-2 melanoma = tested on: SK-MEL-2 melanoma
SK-MEL-28 melanoma = tested on: SK-MEL-28 melanoma
SK-OV-3 ovarian = tested on: SK-OV-3 ovarian
SN12C renal = tested on: SN12C renal
SNB-19 CNS = tested on: SNB-19 CNS
SNB-78 CNS = tested on: SNB-78 CNS
SR leukemia = tested on: SR leukemia
SW-620 colon = tested on: SW-620 colon
TK-10 renal = tested on: TK-10 renal
U251 CNS = tested on: U251 CNS
UACC-257 melanoma = tested on: UACC-257 melanoma
UACC-62 melanoma = tested on: UACC-62 melanoma
UO-31 renal = tested on: UO-31 renal
XF 498 CNS = tested on: XF 498 CNS

**Q.** How did the TGI (786-0 renal) turn out when CSC(=N)N1N=C2/C(=C/c3ccccc3)CCC[C@H]2[C@H]1c1ccccc1 was run?
**A.** 20.3 µM

**Q.** What about the TGI (A498 renal) of the same compound?
**A.** 18.4 µM

**Q.** And the TGI (A549 NSCLC)?
**A.** 16.3 µM

**Q.** And the TGI (ACHN renal)?
**A.** 11.8 µM

**Q.** What about the TGI (CCRF-CEM leukemia) of the same compound?
**A.** 8.2 µM

**Q.** And the TGI (COLO 205 colon)?
**A.** 2.93 µM

**Q.** And the TGI (DLD-1 colon)?
**A.** 14.5 µM

**Q.** And the TGI (DMS 114 small cell lung)?
**A.** 7.83 µM

**Q.** What about the TGI (DMS 273 small cell lung) of the same compound?
**A.** 11.8 µM

**Q.** And the TGI (EKVX NSCLC)?
**A.** 19.4 µM

**Q.** What about the TGI (HCC-2998 colon) of the same compound?
**A.** 10.4 µM

**Q.** What about the TGI (HCT-116 colon) of the same compound?
**A.** 9.83 µM

**Q.** And the TGI (HCT-15 colon)?
**A.** 20.9 µM

**Q.** What about the TGI (HL-60(TB) leukemia) of the same compound?
**A.** 4.29 µM

**Q.** What about the TGI (HOP-18 NSCLC) of the same compound?
**A.** 14.3 µM

**Q.** And the TGI (HOP-62 NSCLC)?
**A.** 20.8 µM

**Q.** What about the TGI (HOP-92 NSCLC) of the same compound?
**A.** 19.5 µM

**Q.** What about the TGI (HT29 colon) of the same compound?
**A.** 5.54 µM

**Q.** And the TGI (IGROV1 ovarian)?
**A.** 9.18 µM

**Q.** And the TGI (K-562 leukemia)?
**A.** 6.09 µM

**Q.** And the TGI (KM12 colon)?
**A.** 23.2 µM

**Q.** And the TGI (KM20L2 colon)?
**A.** 5.97 µM

**Q.** What about the TGI (LOX IMVI melanoma) of the same compound?
**A.** 16.2 µM

**Q.** And the TGI (LXFL 529 NSCLC)?
**A.** 16.7 µM

**Q.** And the TGI (M14 melanoma)?
**A.** 14.8 µM

**Q.** What about the TGI (MALME-3M melanoma) of the same compound?
**A.** 3.94 µM

**Q.** What about the TGI (MOLT-4 leukemia) of the same compound?
**A.** 12.6 µM

**Q.** What about the TGI (NCI-H226 lung) of the same compound?
**A.** 11.2 µM

**Q.** And the TGI (NCI-H23 lung)?
**A.** 19.2 µM

**Q.** What about the TGI (NCI-H460 lung) of the same compound?
**A.** 20.1 µM

**Q.** What about the TGI (NCI-H522 lung) of the same compound?
**A.** 17.2 µM

**Q.** And the TGI (OVCAR-3 ovarian)?
**A.** 23.8 µM

**Q.** What about the TGI (OVCAR-4 ovarian) of the same compound?
**A.** 11.8 µM

**Q.** What about the TGI (OVCAR-5 ovarian) of the same compound?
**A.** 14.7 µM

**Q.** And the TGI (OVCAR-8 ovarian)?
**A.** 24.8 µM

**Q.** And the TGI (RPMI-8226 leukemia)?
**A.** 7.12 µM

**Q.** And the TGI (RXF 393 renal)?
**A.** 9.85 µM

**Q.** What about the TGI (SF-268 CNS) of the same compound?
**A.** 37.9 µM

**Q.** And the TGI (SF-295 CNS)?
**A.** 16.9 µM

**Q.** And the TGI (SF-539 CNS)?
**A.** 19.5 µM

**Q.** And the TGI (SK-MEL-2 melanoma)?
**A.** 15.4 µM

**Q.** What about the TGI (SK-MEL-28 melanoma) of the same compound?
**A.** 12 µM

**Q.** And the TGI (SK-OV-3 ovarian)?
**A.** 18.2 µM

**Q.** What about the TGI (SN12C renal) of the same compound?
**A.** 14.1 µM

**Q.** And the TGI (SNB-19 CNS)?
**A.** 19.3 µM

**Q.** And the TGI (SNB-78 CNS)?
**A.** 34.6 µM

**Q.** What about the TGI (SR leukemia) of the same compound?
**A.** 4.6 µM

**Q.** What about the TGI (SW-620 colon) of the same compound?
**A.** 15.3 µM

**Q.** And the TGI (TK-10 renal)?
**A.** 25.8 µM

**Q.** What about the TGI (U251 CNS) of the same compound?
**A.** 25.9 µM

**Q.** What about the TGI (UACC-257 melanoma) of the same compound?
**A.** 6.92 µM

**Q.** What about the TGI (UACC-62 melanoma) of the same compound?
**A.** 23.9 µM

**Q.** And the TGI (UO-31 renal)?
**A.** 13.4 µM

**Q.** And the TGI (XF 498 CNS)?
**A.** 23.5 µM
